Measured values published in PubChem BioAssay (NCI).
Values joined by “and” are separate entries in the source; they are usually repeats but may differ in a detail not shown here. Identical values can stand only once.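 Exposure lasted 48 hours, with cells grown in 96-well plates and compounds tested at five concentrations. The concentration for 50% growth inhibition is given as GI50. TGI denotes the concentration required for complete inhibition of growth.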

Legend:
Experiment in all cases: DTP human tumour cell line panel, 48 h
[1] = test system: PC-3 prostate
[2] = test system: BT-549 breast
[3] = test system: LOX IMVI melanoma
[4] = test system: HL-60(TB) leukemia
[5] = test system: MOLT-4 leukemia
[6] = test system: SK-MEL-5 melanoma
[7] = test system: COLO 205 colon
[8] = test system: SW-620 colon
[9] = test system: SN12C renal
[10] = test system: NCI-H522 lung
[11] = test system: HS 578T breast
[12] = test system: NCI-H226 lung
[13] = test system: RXF 393 renal
[14] = test system: OVCAR-5 ovarian
[15] = test system: T-47D breast
[16] = test system: HOP-62 NSCLC
[17] = test system: HOP-92 NSCLC
[18] = test system: RPMI-8226 leukemia
[19] = test system: CAKI-1 renal
[20] = test system: ACHN renal
[21] = test system: SNB-75 CNS
[22] = test system: MDA-MB-435
[23] = test system: HCT-116 colon
[24] = test system: U251 CNS
[25] = test system: SK-OV-3 ovarian
[26] = test system: M14 melanoma
[27] = test system: MDA-MB-231 breast
[28] = test system: SF-295 CNS
[29] = test system: KM12 colon
[30] = test system: SK-MEL-2 melanoma
[31] = test system: IGROV1 ovarian
[32] = test system: TK-10 renal
[33] = test system: OVCAR-8 ovarian
[34] = test system: UO-31 renal
[35] = test system: NCI-H23 lung
[36] = test system: CCRF-CEM leukemia
[37] = test system: EKVX NSCLC
[38] = test system: HCT-15 colon
[39] = test system: MALME-3M melanoma
[40] = test system: UACC-62 melanoma
[41] = test system: 786-0 renal
[42] = test system: OVCAR-3 ovarian
[43] = test system: SR leukemia
[44] = test system: HT29 colon
[45] = test system: MCF7 breast
[46] = test system: A549 NSCLC
[47] = test system: SNB-19 CNS
[48] = test system: SK-MEL-28 melanoma
[49] = test system: DU-145 prostate
[50] = test system: OVCAR-4 ovarian
[51] = test system: A498 renal
[52] = test system: SF-539 CNS
[53] = test system: NCI/ADR-RES ovarian
[54] = test system: SF-268 CNS
[55] = test system: HCC-2998 colon
[56] = test system: NCI-H460 lung
[57] = test system: UACC-257 melanoma
[58] = test system: K-562 leukemia

O=C1C2=C(C(=O)c3ccccc31)C(O)(S(=O)(=O)O)C(O)(S(=O)(=O)O)C1N=CC=CC21 (stereo unspecified)
GI50 [1]: 4.69 µM and 3.2 µM
TGI [1]: > 100 µM and 29.6 µM
GI50 [2]: 5.88 µM and 5.04 µM
TGI [2]: 39.9 µM and 25.8 µM
GI50 [3]: 3100 nM and 2840 nM
TGI [3]: 54.9 µM and 20.3 µM
GI50 [4]: 7.83 µM and 4.13 µM
TGI [4]: > 100 µM and 20.6 µM
GI50 [5]: 7.06 µM and 4.38 µM
TGI [5]: > 100 µM and 34.4 µM
GI50 [6]: 3.96 µM and 3.63 µM
TGI [6]: 16.3 µM and 14.5 µM
GI50 [7]: 7.08 µM and 4.11 µM
TGI [7]: 29.9 µM and 61.5 µM
GI50 [8]: 3.65 µM and 4.29 µM
TGI [8]: 96.9 µM and 17.2 µM
GI50 [9]: 4.84 µM and 3.25 µM
TGI [9]: > 100 µM and 14.1 µM
GI50 [10]: 4.8 µM and 2.13 µM
TGI [10]: 39.6 µM and 5.71 µM
GI50 [11]: 4.93 µM and 3.71 µM
TGI [11]: 75.7 µM and 29.8 µM
GI50 [12]: 9.22 µM and 11.9 µM
TGI [12]: 69.2 µM and 27.7 µM
GI50 [13]: 5.73 µM and 2.98 µM
TGI [13]: 28.6 µM and 11.9 µM
GI50 [14]: 8.7 µM and 9.31 µM
TGI [14]: > 100 µM and 45.7 µM
GI50 [15]: 3.97 µM and 4.7 µM
TGI [15]: 28.5 µM and 30.7 µM
GI50 [16]: 5.36 µM and 3.03 µM
TGI [16]: 31.8 µM and 19.2 µM
GI50 [17]: 2960 nM and 1850 nM
TGI [17]: 26.9 µM and 6.81 µM
GI50 [18]: 4.99 µM and 3.99 µM
TGI [18]: > 100 µM and 27.6 µM
GI50 [19]: 1720 nM and 315 nM
TGI [19]: 9.4 µM and 1.87 µM
GI50 [20]: 4.47 µM and 3.83 µM
TGI [20]: 39.2 µM and 19.3 µM
GI50 [21]: 4.08 µM and 3.17 µM
TGI [21]: 41.9 µM and 19.6 µM
GI50 [22]: 4.56 µM and 3.56 µM
TGI [22]: 80.5 µM and 24.8 µM
GI50 [23]: 3.34 µM and 2.81 µM
TGI [23]: 20.1 µM and 12.7 µM
GI50 [24]: 3.85 µM and 2.69 µM
TGI [24]: 28.8 µM and 17.8 µM
GI50 [25]: 4.61 µM and 8.35 µM
TGI [25]: 38.3 µM and 32.4 µM
GI50 [26]: 4.83 µM and 3.2 µM
TGI [26]: 32.1 µM and 29.4 µM
GI50 [27]: 14.5 µM and 4.51 µM
TGI [27]: > 100 µM and 46.6 µM
GI50 [28]: 2570 nM and 1130 nM
TGI [28]: 6.68 µM and 8.19 µM
GI50 [29]: 4.33 µM and 4.8 µM
TGI [29]: 67.4 µM and 20 µM
GI50 [30]: 10.1 µM and 9.93 µM
TGI [30]: 70.3 µM and 33.1 µM
GI50 [31]: 2190 nM
TGI [31]: 9.5 µM
GI50 [32]: 6.25 µM and 9.35 µM
TGI [32]: 68.3 µM and 28.8 µM
GI50 [33]: 3.46 µM and 4.23 µM
TGI [33]: > 100 µM and 18.6 µM
GI50 [34]: 2460 nM and 2190 nM
TGI [34]: 27 µM and 13 µM
GI50 [35]: 3.87 µM and 3.49 µM
TGI [35]: 27.6 µM and 18.8 µM
GI50 [36]: 6.47 µM
TGI [36]: > 100 µM
GI50 [37]: 3.32 µM and 2.71 µM
TGI [37]: 31.9 µM and 14.5 µM
GI50 [38]: 3470 nM and 2150 nM
TGI [38]: > 100 µM
GI50 [39]: 10.3 µM and 14.8 µM
TGI [39]: 36.7 µM and 39 µM
GI50 [40]: 6.17 µM and 4.52 µM
TGI [40]: 19.4 µM and 18.7 µM
GI50 [41]: 5.03 µM and 4.29 µM
TGI [41]: 25 µM and 17.4 µM
GI50 [42]: 2330 nM and 2860 nM
TGI [42]: 6.78 µM and 11.7 µM
GI50 [43]: 4580 nM and 1140 nM
TGI [43]: > 100 µM and 50.1 µM
GI50 [44]: 5.84 µM and 4.51 µM
TGI [44]: > 100 µM and 20.8 µM
GI50 [45]: 4.9 µM and 3.26 µM
TGI [45]: 29.1 µM and 27.2 µM
GI50 [46]: 4.75 µM and 4.09 µM
TGI [46]: 37.1 µM and 16.1 µM
GI50 [47]: 4.28 µM and 5.5 µM
TGI [47]: 44.4 µM and > 100 µM
GI50 [48]: 17 µM and 12.1 µM
TGI [48]: 96.1 µM and 28.6 µM
GI50 [49]: 6.09 µM and 5.9 µM
TGI [49]: 44 µM and 22.2 µM
GI50 [50]: 3.66 µM and 2.99 µM
TGI [50]: > 100 µM
GI50 [51]: 10.1 µM and 3.3 µM
TGI [51]: 40.1 µM and 12.7 µM
GI50 [52]: 4.01 µM and 3.89 µM
TGI [52]: 19.9 µM and 18.1 µM
GI50 [53]: 2450 nM and 1270 nM
TGI [53]: 18.6 µM and 23.7 µM
GI50 [54]: 3.93 µM and 5.96 µM
TGI [54]: 41.4 µM and 32.1 µM
GI50 [55]: 4.63 µM and 3.93 µM
TGI [55]: 60.4 µM and 17.5 µM
GI50 [56]: 2840 nM and 1390 nM
TGI [56]: 11.7 µM and 6.25 µM
GI50 [57]: 10.8 µM
TGI [57]: 47.7 µM
GI50 [58]: 3.71 µM
TGI [58]: > 100 µM
